SMILES strings stand for the structures.

15 molecules from patent US12240862B2, “Inhibitors of peptidylarginine deiminases” (Gilead Sciences, Inc., priority 2020, dated 2025) can be followed below.

T1 sequence (Q9UM07 2-663): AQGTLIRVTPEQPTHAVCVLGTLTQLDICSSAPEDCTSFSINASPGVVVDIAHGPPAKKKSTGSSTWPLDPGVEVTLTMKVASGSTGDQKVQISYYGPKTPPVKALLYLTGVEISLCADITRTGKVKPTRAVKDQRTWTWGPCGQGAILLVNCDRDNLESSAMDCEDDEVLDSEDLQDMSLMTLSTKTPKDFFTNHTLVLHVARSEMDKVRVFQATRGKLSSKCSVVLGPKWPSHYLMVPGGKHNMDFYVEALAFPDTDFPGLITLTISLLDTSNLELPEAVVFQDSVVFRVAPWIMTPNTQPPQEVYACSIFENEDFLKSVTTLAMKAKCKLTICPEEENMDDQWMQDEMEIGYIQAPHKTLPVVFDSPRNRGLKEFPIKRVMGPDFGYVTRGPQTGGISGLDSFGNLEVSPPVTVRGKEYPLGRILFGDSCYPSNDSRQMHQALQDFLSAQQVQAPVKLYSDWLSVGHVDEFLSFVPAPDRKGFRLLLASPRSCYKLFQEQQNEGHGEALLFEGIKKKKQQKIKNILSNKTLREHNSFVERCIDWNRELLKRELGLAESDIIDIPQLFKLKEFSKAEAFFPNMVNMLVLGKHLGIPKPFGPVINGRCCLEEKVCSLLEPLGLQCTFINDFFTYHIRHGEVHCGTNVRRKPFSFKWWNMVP

This experiment concerns the target T1, human PAD4 (Homo sapiens, UniProt Q9UM07).
T1 construct: human PAD4 (NM_012387), A2P663, was PCR amplified; His-SUMO (N, cleaved yes); made in house; host or cells: E. coli BL21(DE3)
As to the kind of experiment: In vitro PAD4 BAEE biochemical assay. Particulars: human PAD4, BAEE substrate; 5 nM PAD4, 2 mM calcium chloride, 3 mM BAEE; geometric mean of multiple experiments. The method in brief:
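Ammonia generated from BAEE serves as the readout, measured by o-phthalaldehyde after EDTA termination. Final conditions: 5 nM human PAD4 (SUMO tag cleaved), 2 mM CaCl2, 3 mM BAEE, pH 7.6 MOPS buffer, 25 °C for 2 h following a 30-min compound preincubation.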
As usually defined, the IC50 is the concentration that gives 50% inhibition. For `COc1cc(C(=O)N2[C@H]3CC[C@@H]2[C@H](N)C3)cc2nc(-c3cc4ccc([C@@H](C)NC(=O)Nc5ccccc5)nc4n3CC3CC3)c(C)n12` [Example 239, 1-[(1~{R})-1-[2-[7-[(1~{R},2~{R},4~{S})-2-amino-7-azabicyclo[2.2.1]heptane-7-carbonyl]-5-methoxy-3-methylimidazo [1,2-a]pyridin-2-yl]-1-(cyclopropylmethyl)pyrrolo [2,3-b]pyridin-6-yl]ethyl]-3-phenylurea], the IC50 came to 81.7 nM.
For `COc1cc(C(=O)N2CCC[C@@H](N)C2)cc2nc(-c3cc4ccc([C@@H](C)NC(=O)C(C)(C)O)nc4n3CC3CC3)c(C)n12` [Example 127, ~{N}-[(1~{R})-1-[2-[7-[(3~{R})-3-aminopiperidine-1-carbonyl]-5-methoxy-3-methylimidazo [1,2-a]pyridin-2-yl]-1-(cyclopropylmethyl)pyrrolo [2,3-b]pyridin-6-yl]ethyl]-2-hydroxy-2-methylpropanamide] the value was 76.2 nM; for `COc1cc(C(=O)N2[C@H]3CC[C@@H]2[C@H](N)C3)cc2nc(-c3cc4ccc([C@@H](C)NC(=O)c5ncccn5)nc4n3CC3CC3)c(C)n12` [Example 118, ~{N}-[(1~{R})-1-[2-[7-[(1~{R},2~{R},4~{S})-2-amino-7-azabicyclo[2.2.1]heptane-7-carbonyl]-5-methoxy-3-methylimidazo [1,2-a]pyridin-2-yl]-1-(cyclopropylmethyl)pyrrolo [2,3-b]pyridin-6-yl]ethyl]pyrimidine-2-carboxamide], 63.7 nM.
For `COc1cc(C(=O)N2C[C@H](N)CCN2C)cc2nc(-c3cc4ccc([C@@H](C)NC(=O)c5ccccc5)nc4n3CC3CC3)c(C)n12` [Example 614, N—((R)-1-(2-(7-((R)-5-amino-2-methylhexahydropyridazine-1-carbonyl)-5-methoxy-3-methylimidazo[1,2-a]pyridin-2-yl)-1-(cyclopropylmethyl)-1H-pyrrolo[2,3-b]pyridin-6-yl)ethyl)benzamide] the value was 90.2 nM.
The figure for `COc1cc(C(=O)N2[C@H]3CC[C@@H]2[C@H](N)[C@H](OC)C3)cc2nc(-c3cc4ccc([C@@H](C)NC(=O)C56CC(F)(C5)C6)nc4n3CC3CC3)c(C)n12` [Example 183, ~{N}-[(1~{R})-1-[2-[7-[(1~{R},2~{S},3~{R}, 5~{S})-2-amino-3-methoxy-8-azabicyclo [3.2.1]octane-8-carbonyl]-5-methoxy-3-methylimidazo [1,2-a]pyridin-2-yl]-1-(cyclopropylmethyl)pyrrolo [2,3-b]pyridin-6-yl]ethyl]-3-fluorobicyclo[1.1.1]pentane-1-carboxamide] is 237 nM; for `COc1cc(C(=O)N2[C@H]3CC[C@@H]2[C@H](N)C3)cc2nc(-c3cc4ccc(N5CCCC(c6ccccc6)S5(=O)=O)nc4n3CC3CC3)c(C)n12` (stereo partly drawn) [Example 469, [(1~{R},2~{R},4~{S})-2-amino-7-azabicyclo [2.2.1]heptan-7-yl]-[2-[1-(cyclopropylmethyl)-6-(1,1-dioxo-6-phenylthiazinan-2-yl)pyrrolo[2,3-b]pyridin-2-yl]-5-methoxy-3-methylimidazo[1,2-a]pyridin-7-yl]methanone] it is 781 nM; for `CCc1ccc2cc(-c3nc4cc(C(=O)N5[C@H]6CC[C@@H]5[C@H](N)C6)cc(OC)n4c3C)n(CCC3CC3)c2n1` [Example 505, [(1~{R},2~{R},4~{S})-2-amino-7-azabicyclo [2.2.1]heptan-7-yl]-[2-[1-(2-cyclopropylethyl)-6-ethylpyrrolo[2,3-b]pyridin-2-yl]-5-methoxy-3-methylimidazo[1,2-a]pyridin-7-yl]methanone] it is 170 nM.
For the molecule `COc1cc(C(=O)N2[C@H]3CC[C@@H]2[C@H](N)C3)cc2nc(-c3cc4ccc(N5[C@H](C)CCCS5(=O)=O)nc4n3CC3CC3)c(C)n12` [Example 463, [(1~{R},2~{R},4~{S})-2-amino-7-azabicyclo [2.2.1]heptan-7-yl]-[2-[1-(cyclopropylmethyl)-6-[(3~{R})-3-methyl-1,1-dioxothiazinan-2-yl]pyrrolo[2,3-b]pyridin-2-yl]-5-methoxy-3-methylimidazo [1,2-a]pyridin-7-yl] methanone], the IC50 came to 133 nM.
Regarding `CCOC(=O)CC(C)c1ccc2cc(-c3nc4cc(C(=O)N5CCC[C@@H](N)C5)cc(OC)n4c3C)n(CC3CC3)c2n1` (stereo partly drawn) [Example 598, ethyl 3-[2-[7-[(3~{R})-3-aminopiperidine-1-carbonyl]-5-methoxy-3-methylimidazo [1,2-a]pyridin-2-yl]-1-(cyclopropylmethyl)pyrrolo [2,3-b]pyridin-6-yl] butanoate], the IC50 came out at 312 nM.
The figure for `COc1cc(C(=O)N2[C@H]3CC[C@@H]2[C@H](N)C3)cc2nc(-c3cc4ccc([C@@H](C)NC(=O)c5cccc(C#N)c5)nc4n3CC3CC3)c(C)n12` [Example 122, ~{N}-[(1~{R})-1-[2-[7-[(1~{R},2~{R},4~{S})-2-amino-7-azabicyclo[2.2.1]heptane-7-carbonyl]-5-methoxy-3-methylimidazo [1,2-a]pyridin-2-yl]-1-(cyclopropylmethyl)pyrrolo [2,3-b]pyridin-6-yl]ethyl]-3-cyanobenzamide] is 78.5 nM; for `COc1cc(C(=O)N2[C@H]3CC[C@@H]2[C@H](N)C3)cc2nc(-c3cc4ccc([C@@H](C)NC(=O)c5ccnc(Cl)c5)nc4n3CC3CC3)c(C)n12` [Example 51] it is 30.9 nM.
For `COc1cc(C(=O)N2[C@H]3CC[C@@H]2[C@H](N)C3)cc2nc(-c3cc4ccc(C5CCN(C(=O)N6CCCC6)CC5)nc4n3CC3CC3)c(C)n12` [Example 525, [(1~{R},2~{R},4~{S})-2-amino-7-azabicyclo [2.2.1]heptan-7-yl]-[2-[1-(cyclopropylmethyl)-6-[1-(pyrrolidine-1-carbonyl)piperidin-4-yl]pyrrolo [2,3-b]pyridin-2-yl]-5-methoxy-3-methylimidazo [1,2-a]pyridin-7-yl]methanone] the value was 228 nM; for `COc1cc(C(=O)N2[C@H]3CC[C@@H]2[C@H](N)C3)cc2nc(-c3cc4ccc([C@@H](C)NC(=O)CCS(C)(=O)=O)nc4n3CC3CC3)c(C)n12` [Example 153, ~{N}-[(1~{R})-1-[2-[7-[(1~{R},2~{R},4~{S})-2-amino-7-azabicyclo[2.2.1]heptane-7-carbonyl]-5-methoxy-3-methylimidazo [1,2-a]pyridin-2-yl]-1-(cyclopropylmethyl)pyrrolo [2,3-b]pyridin-6-yl]ethyl]-3-methylsulfonylpropanamide], 68.7 nM.
As to `COc1cc(C(=O)N2CCC[C@@H](N)C2)cc2nc(-c3cc4ccc(-c5ccc(N)nc5C)nc4n3CC3CC3)c(C)n12` [Example 605, [2-[6-(6-amino-2-methylpyridin-3-yl)-1-(cyclopropylmethyl)pyrrolo[2,3-b]pyridin-2-yl]-5-methoxy-3-methylimidazo[1,2-a]pyridin-7-yl]-[(3~{R})-3-aminopiperidin-1-yl]methanone], the IC50 stood at 518 nM.
In the case of `CCc1ccc2cc(-c3nc4cc(C(=O)N5[C@H]6CC[C@@H]5[C@H](N)C6)cc(OC)n4c3C)n(CC3CC3C)c2n1` (stereo partly drawn) [Example 503, [(1~{R},2~{R},4~{S})-2-amino-7-azabicyclo [2.2.1]heptan-7-yl]-[2-[6-ethyl-1-[(2-methylcyclopropyl)methyl]pyrrolo[2,3-b]pyridin-2-yl]-5-methoxy-3-methylimidazo[1,2-a]pyridin-7-yl]methanone], the IC50 amounted to 115 nM.
